Experimental data as given in US8981150B2 (priority 2009, dated 2015).

Assay: Solubility in water

SMILES | Solubility in water (% w/w)
CCCCC(OC)C(=O)N(C)C (stereo not shown) [Product 4] | <0.05 % w/w
CCCCC(OCC)C(=O)N(C)C (stereo not shown) [Product 5] | <0.05 % w/w
CCCC(OC)C(=O)N(C)C (stereo not shown) [Product 6] | <0.1 % w/w
CCCC(OCC)C(=O)N(C)C (stereo not shown) [Product 7] | <0.1 % w/w
